Measured values: patent US20020004218A1, “Methods for identifying compounds useful for inhibiting geranylgeranyl diphosphate synthase” (priority 2000, published 2002)

How the values were obtained:
[1] = molecular target: T1, rat liver squalene synthase (Rattus norvegicus, UniProt Q02769); details: cited from earlier work
T1 construct: host or cells: rat liver
T1 sequence (Q02769 1-416): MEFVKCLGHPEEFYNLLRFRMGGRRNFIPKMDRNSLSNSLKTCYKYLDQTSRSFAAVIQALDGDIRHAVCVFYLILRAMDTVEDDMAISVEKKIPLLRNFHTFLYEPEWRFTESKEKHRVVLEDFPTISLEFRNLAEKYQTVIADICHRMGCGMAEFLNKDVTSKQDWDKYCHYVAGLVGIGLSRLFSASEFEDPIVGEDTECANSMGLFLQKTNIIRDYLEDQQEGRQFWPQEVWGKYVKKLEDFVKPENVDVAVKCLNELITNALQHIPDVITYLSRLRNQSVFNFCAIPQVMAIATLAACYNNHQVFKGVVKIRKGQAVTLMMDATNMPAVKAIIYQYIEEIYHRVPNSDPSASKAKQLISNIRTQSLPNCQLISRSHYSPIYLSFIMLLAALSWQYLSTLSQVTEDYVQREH

[2] = system: osteoclasts; details: osteoclasts in culture; cited from earlier work
[3] = system: sterol synthesis; details: incorporation of 14C-MVA into sterol, rat liver cell-free system; read-out: IC50, block of sterol synthesis; cited from earlier work
[4] = system: geranylgeranyl diphosphate synthase
Excerpt: The present invention relates to a method for identifying inhibitors of geranylgeranyl diphosphate synthase comprising:
a). contacting a putative geranylgeranyl diphosphate synthase inhibitor with a geranylgeranyl diphosphate synthase assay solution, and
b). determining, i.e. comparing, the geranylgeranyl diphosphate synthase activity of said assay solution with a geranylgeranyl diphosphate synthase assay solution not contacted with said putative inhibitor, in order to determine the amount of inhibition.
In these methods the geranylgeranyl diphosphatesynthase assay solution is typically an aqueous solution. The inhibition effect is measured with respect to the catalysis of an appropriate reaction that one of ordinary skill in the art can select. Reaction times, conditions, quatitation methods, and other variables are chosen for convenience to obtain a readily quantitated system for measuring the inhibition of the geranylgeranyl diphosphate synthase.
Additionally, in these methods of identifying inhibitors of geranylgeranyl diphosphate synthase, the enzyme can be used in a crude, unpurified state, from various tissues sources, e.g., liver. Alternatively, the enzyme can be used in a partially purified state, a purified state, or as an expressed form of the enzyme, e.g., the expressed human enzyme.

Compound	inhibition of squalene synthase [1]	bone resorption [2]	osteoclast formation [2]	IC50 [3] [nM]	inhibition of geranylgeranyl diphosphate synthase [4]
O=P(O)(O)C(O)(CCN1CCCC1)P(=O)(O)O [EB 1053, 1-hydroxy-3-(1-pyrrolidinyl)-propylidene-1,1-bisphosphonic acid]	potent, nanomolar inhibitors				
O=P(O)(O)C(NC1CCCCCC1)P(=O)(O)O [YM 175, Cycloheptylaminomethylene-1,1-bisphosphonic acid]	potent, nanomolar inhibitors				
NCCCC(O)(P(=O)(O)O)P(=O)(O)O [alendronate, 4-amino-1-hydroxybutylidene-1,1-bisphosphonic acid monosodium trihydrate]	comparatively little effect	inhibited	inhibited	168	
CC[C@H](C)C(=O)O[C@H]1C[C@@H](C)C=C2C=C[C@H](C)[C@H](CC[C@@H]3C[C@@H](O)CC(=O)O3)[C@H]21 [lovastatin]		inhibited	inhibited		
NCCC(O)(P(=O)(O)O)P(=O)(O)O [pamidronate, 3-amino-1-hydroxypropylidene-1,1-bisphosphonic acid]	comparatively little effect			420	
O=P(O)(O)C(O)(Cc1cccnc1)P(=O)(O)O [risedronate, 1-hydroxy-2-(3-pyridinyl)-ethylidene-1,1-bisphosphonic acid]					specific nanomolar inhibitors
